Measured values as given in patent US9980972B2, “Rho kinase inhibitors for use in treating familial amyotrophic lateral sclerosis” (GEORG-AUGUST-UNIVERSITÄT GÖTTINGEN STIFTUNG ÖFFENTLICHEN …, priority 2012, dated 2018).

Columns and labels:
[1] = test system: mono-cultures of primary motoneurons; assay: Kainic acid toxicity in motoneuron mono-culture; type: cell-based
[2] = test system: SOD1 wt and SOD1G93A microglia; assay: LPS-triggered cytokine/chemokine release of primary microglia (ELISA); type: cell-based, mouse; conditions: 18 hours; for proinflammatory cytokine release: SOD1 wt and SOD1G93A microglia
Experimental: Primary cell cultures were prepared from whole brains of newborn (PO) mice and cultured in complete Dulbecco's modified Eagle's medium (DMEM, Invitrogen/Gibco, Karlsruhe, Germany), supplemented with 10% fetal calf serum (FCS, Invitrogen/Gibco), 100 U/ml penicillin and 100 μg/ml streptomycin (both Biochrom, Berlin, Germany) as previously described (Regen, et al. (2011) Brain, Behavior, and Immunity 25(5): 957-970). In brief, brains of newborn B6/SJL SOD1G93A and from B6/SJL SOD1wt, respectively, were liberated from meninges and blood vessels, washed with Hank's balanced salt solution (HBSS; Biochrom) and incubated with 2.5% trypsin (Biochrom) for 10 min at 37° C. The enzymatic reaction was stopped by addition of complete medium, supplemented with DNAse [5 mg/ml] (Worthington Biochemicals, Lakewood, N.J., USA). Remaining cell clusters were mechanically separated and the suspension was centrifuged at 900 rpm at 4° C. for 10 min. The supernatant was removed, cells were resuspended in fresh complete medium and seeded in 75 cm2, poly-L-lysine (PLL)-coated culture flasks. Immediately before being used, flasks were incubated with 100 μg/ml PLL (Invitrogen/Gibco) for 30 min at RT and excess of PLL was washed off by three rinses with sterile ddH2O. Subsequently, cultures were maintained in a humidified atmosphere with 5% CO2 at 37° C. On the next day, primary mixed-glial cultures were washed three times (PBS, Invitrogen/Gibco) and received fresh complete medium, the latter being repeated the following day. One week after seeding, microglial proliferation was stimulated by adding complete medium supplemented with 30% of L929-conditioned cell culture supernatant (see section “L929 Mouse Fibroblast Cultures” below). After another two days, microglial cells were harvested by shaking them off the astrocytic layer, taking advantage of their different adhesion properties. After washing with complete medium and counting, cells were plated in 96-well plates at a density of 15,000 cells/well for ELISA or were plated in 24-well plates at a density of 50,000 cells/well on PLL-coated coverslips for later immunocytochemical processing.
Primary cultures underwent five different general treatments: (a) Cells were left untreated in medium serving as controls. (b) Cells were stimulated with the TLR4 ligand LPS (E. coli R515; Axxora/Appotech TLR ligand set 1, APO.54N-018) for 18 hours at a final concentration of 10 ng/ml. (c) Cells underwent a treatment with Fasudil at 2 μM, 10 μM or 50 μM, respectively, for 18 hours. (d) Cells were stimulated with LPS, as described above, in the presence of various concentrations of Fasudil. (e) Cells were preincubated for 1 h, 4 h or 12 h, respectively with Fasudil at 50 μM, prior to a LPS challenge in the continued presence of Fasudil at 50 μM. Stimulation experiments were routinely carried out twice.
Following microglial stimulations and treatments, culture supernatants were collected and stored at −20° C. until assayed. Supernatants were analyzed for the release of cyto- and chemokines by commercial enzyme-linked immunosorbent assay (ELISA) test systems. Levels of IL-6, CCL2 (monocyte chemoattractant protein, MCP-1), CCL3 (macrophage inflammatory protein, MIP-1α) and CCL5 (regulated upon activation normal T-cell expressed and presumably secreted, RANTES) and CXCL1 (Chemokine (C-X-C motif) ligand 1) were determined using DuoSet ELISA Development Kits (R&D Systems). TNFα (tumor necrosis factor α) was determined using MAXTM ELISA kit (Biolegend). Absorbance was measured at 450 nm (with a 540 nm reference wavelength) using a microplate reader (Bio-Rad).

[3] = test system: spinal cord microglia of SOD1 G93A mice; assay: Microglia morphology subclassification in lumbar spinal cord; type: in vivo, mouse
Source text: For the evaluation of microglia morphology at least 10 randomly chosen cells per ventral horn were examined with a 63× objective. Cells were classified as “thin ramified”, “stouter ramified” and “rounded” according to a recent morphologic description by Graeber et al. (Graeber, M. B. (2010) Science 330(6005): 783-788). A ramified cell was defined as a cell that has at least 2 processes that are at least twice the size of cell body. Thin ramified cells were defined to have a small diameter of ramifications (<0.5 μm) and a small cell soma diameter (<5 μm). Stoutly ramified cells were defined with thicker ramifications (>0.5 μm) and a larger cell soma diameter (>5 μm).
In order to further characterize the differential microglial behaviour in the treatment groups at d100, we performed a morphologic subclassification of microglial cells, as described above under the heading “Quantitative evaluation of spinal cord motoneurons and astroglia, sciatic nerve axons and NMJ”. […] The latter two morphologic cell types are considered to reflect a state of enhanced microglial activation in comparison to a surveillance type which is characterized by smaller cell bodies and thin ramified processes (exemplary microscopic images are shown in FIG. 21 C).

[4] = test system: SOD1 G93A mouse model of ALS; assay: Disease onset by neurological score in SOD1 G93A mice; type: in vivo; conditions: treated from d50 or from d80, differentiated by gender
Experimental: Neurological Score. Neurological scores were assessed every three days for each mouse from 50 days of age. The neurological score employed a scale of 0 to 4 that had been developed in ALS mouse trials before. Score criteria used to assign each score level were: • 4 Full extension of hind legs away from lateral midline when mouse is suspended by its tail, and mouse can hold this for 2 seconds, suspended 2-3 times. • 3 Collapse or partial collapse of leg extension towards lateral midline (weakness) or trembling of hind legs during tail suspension. • 2 Toes curl under at least twice during walking of 10 cm, or any part of foot is dragging along cage bottom/table. • 1 Rigid paralysis or minimal joint movement, foot not being used for forward motion*. * If score criterion 2 is reached, food pellets are left on bedding and water is additionally placed in a well on the bedding. • 0 Mouse cannot right itself within 30 seconds from either side.
Onset of disease is defined as reaching neurological score 3 (collapse or partial collapse of leg extension towards lateral midline (weakness) or trembling of hind legs during tail suspension).

[5] = LPS 10 ng/ml + Fasudil 50 μM, both genotypes

Q: How did the “survival of KA exposed motoneurons” value [1] turn out when `O=S(=O)(c1cccc2cnccc12)N1CCCNCC1` [Fasudil, 1-(5-isoquinolinesulfonyl)homopiperazine] was run?
A: The value was “effectively protecting”.

Q: What about the proinflammatory cytokine release ([2]; LPS 10 ng/ml + Fasudil 2 μM) of the same compound?
A: The proinflammatory cytokine release was “not efficient in significantly reducing”.

Q: And the proinflammatory cytokine release ([2]; LPS 10 ng/ml + Fasudil 10 μM)?
A: The proinflammatory cytokine release was “not efficient in significantly reducing”.

Q: What about the “release of CCL3” value [2, 5] of the same compound?
A: The value was “markedly reduced”.

Q: And the “release of CXCL1” value [2, 5]?
A: Its value is “markedly reduced”.

Q: And the “release of IL-6” value [2, 5]?
A: Its value is “markedly reduced”.

Q: What about the “release of RANTES” value [2, 5] of the same compound?
A: Its value is “markedly reduced”.

Q: What about the “release of TNFα” value [2, 5] of the same compound?
A: The value was “markedly reduced”.

Q: And the “change of CCL2 release” value ([2]; LPS 10 ng/ml + Fasudil 50 μM, relative to LPS alone (100%), slightly increased/unaffected)?
A: Its value is “+8.9%”.

Q: What about the rounded microglia ([3]; d100, Fasudil 30, vehicle SOD1G93A 0.7±0.2%) of the same compound?
A: Its rounded microglia is 0.5±0.1%.

Q: And the “microglia with stout ramified processes” value ([3]; d100, Fasudil 30, vehicle SOD1G93A 46.7±6.3%)?
A: The value was 70.8±5.3%.

Q: What about the “microglia with thin ramifications” value ([3]; d100, Fasudil 30, vehicle SOD1G93A 52.6±6.3%) of the same compound?
A: The value was 28.7±5.3%.

Q: What about the microglial morphology ([3]; disease end-stage, all treatment groups) of the same compound?
A: The microglial morphology was “no gross alterations”.

Q: And the “onset of disease (neurological score 3)” value [4]?
A: Its value is “no statistically significant difference”.
